Legend:
Assay type in all cases: physicochemical
[1] = DSC/XRPD of binary mixtures of isometheptene mucate and mannitol (eutectic formation); details: binary mixtures at different ratios
Experimental: Because mannitol is a common excipient in solid drug formulations, it was examined for compatibility with racemic isometheptene mucate and investigated using DSC and the interactions occurring were assessed. […] To confirm the formation of a eutectic and to characterize its physical properties, several binary mixtures at different ratios of racemic isometheptene mucate and excipient were prepared and analyzed by DSC and by XRPD. The eutectic formation improved the cohesion between the racemic isometheptene mucate and excipient particles and assured better physical linking between the two.
In order to confirm the eutectic formation and to characterize its physical properties, several binary mixtures at different ratios of racemic isometheptene mucate-excipient were prepared and analyzed by DSC and by X-ray powder diffraction (XRPD). […] For each DSC heating curve, the onset temperature and the enthalpy were evaluated both for the eutectic contribute and for the excess of component. The recorded values were plotted and a phase diagram between the two components was obtained with a characteristic profile of phase diagrams of eutectic mixtures. […]
Aliquots of racemic isometheptene mucate API and mannitol were weighed in the ratios described below and ground in an agate mortar, and the homogeneous mixtures subsequently analyzed. […]

[2] = DSC/XRPD of 75:25 mixtures of (R)-isometheptene salts and β-mannitol; details: for Physical interaction with β-mannitol: 75:25 salt:mannitol, dry-granulated or wet-granulated, DSC confirmed by XRPD; for Eutectic formation with mannitol: (R)-isometheptene salts other than mucate, 75:25 with β-mannitol
Experimental: Thermal analytical techniques were used to analyze mixtures of several (R)-isometheptene salts and β-mannitol in a ratio of 75:25. (R)-isometheptene salts tested were as follows: (R)-isometheptene maleate, (R)-isometheptene malate, and (R)-isometheptene tartrate. Based on the thermal events recorded for each component and for the mixtures, the analyses were carried out by investigating the peaks recorded by differential scanning calorimetry (DSC) in mixture between (R)-isometheptene mucate and the excipients. Differences in thermal profiles between the single compound and the related mixture were evaluated.
Aliquots of (R)-isometheptene salts and each excipient were weighed in a ratio of 1:1 (unless specified otherwise) and ground in an agate mortar with (wet-granulation) or without (dry-granulation) a small amount of water. The homogeneous mixtures then were analyzed.
(§1) The DSC heating curves were obtained with a TA 821 DSC Mettler instrument under the following conditions:
(§2) Heating rate: 10° C./min Ambient: Nitrogen 30 mL/min Sample holder: normal open aluminum pan Temperature range: from 25° C. to 250° C. Instrument calibration: Indium sample purity 99.999%
(§3) X-ray powder diffraction (XRPD) tests were performed with the ULTIMA IV instrument (Rigaku), laying the sample on a static sample holder. The X-ray focusing slit has a variable width, interlocked with the q value. The X-ray tube has a copper target, with a current intensity of 40 mA and a voltage of 40 kV. Radiation was generated by the Cockcroft-Walton method, and was constituted by Kα1 (1.540562 Å) and Kα2 (1.544398 Å). The analytical conditions were:
(§4) Fixed Time; sampling width 0.02 deg, scanning rate 1.3 s/step, 2 q range 3.35 deg and sample holder; amorphous glass equiangular 9200/2G, 0.2 mm deep. The sample was pressed with a glass plate.

[3] = Excipient compatibility of racemic isometheptene mucate by DSC/XRPD (1:1 mixtures); details: 1:1 weight ratio, ground in agate mortar, DSC (XRPD for mannitol)
Experimental: (§5) Thermal analytical techniques were used to assess the compatibility of a drug product containing racemic isometheptene mucate. The compatibility assessment was carried out between the racemic isometheptene mucate and a number of possible excipients in a 1:1 weight ratio. Based on the thermal events recorded for each component and for the mixtures, the analyses were carried out by investigating the peaks recorded by differential scanning calorimetry (DSC) in mixture between racemic isometheptene mucate and the excipients. Differences in thermal profiles between the single compound and the related mixture obtained after milling the products in an agate mortar were evaluated.
Aliquots of racemic isometheptene mucate and each excipient were weighed in a ratio of 1:1 (unless specified otherwise) and ground in an agate mortar. The homogeneous mixtures then were analyzed.
as §1, §2
as §3, with “K+1” for “Kα1”
as §4

[4] = Excipient compatibility of (R)-isometheptene mucate by DSC/XRPD (1:1 mixtures); details: 1:1 weight ratio, ground in agate mortar, DSC
Experimental: as §5, with “mucate (API).” for “mucate.”
Aliquots of (R)-isometheptene mucate and each excipient were weighed in a ratio of 1:1 (unless specified otherwise) and ground in an agate mortar. The homogeneous mixtures then were analyzed.
as §1, §2, §3, §4

Compound | Physical interaction with β-mannitol [2] | Eutectic formation with mannitol [2] | Excipient reactions with (R)-isometheptene mucate, Mixture 1:1 [4] | Excipient reactions with API (racemic isometheptene mucate), Mixture 1:1 [3] | further results
CNC(C)CCC=C(C)C.CNC(C)CCC=C(C)C.O=C(O)[C@@H](O)[C@H](O)[C@H](O)[C@@H](O)C(=O)O (racemic) [racemic isometheptene mucate, reference compound] | – | – | – | – | Interaction with mannitol (eutectic vs adduct) [1]: only a physical eutectic formation
CN[C@H](C)CCC=C(C)C.O=C(O)CC(O)C(=O)O [(R)-isometheptene malate] | No physical interaction was observed | do not form a eutectic composition | – | – | –
CN[C@H](C)CCC=C(C)C.O=C(O)/C=C\C(=O)O [(R)-isometheptene maleate] | No physical interaction was observed | do not form a eutectic composition | – | – | –
CN[C@H](C)CCC=C(C)C.O=C(O)C(O)C(O)C(=O)O [(R)-isometheptene tartrate] | No physical interaction was observed | do not form a eutectic composition | – | – | –
Isomalt | – | – | No interaction reported | No interaction reported | –
Magnesium stearate | – | – | YES | YES | Excipient reactions with API (racemic isometheptene mucate), Mixture 1:1 ([3]; listed as magnesium stearate): small physical interaction was observed; Excipient reactions with (R)-isometheptene mucate, Mixture 1:1 ([4]; listed as magnesium stearate): small physical interaction was observed

More lines, main results first:

Physical interaction with β-mannitol [2] | Eutectic formation with mannitol [2] | Excipient reactions with (R)-isometheptene mucate, Mixture 1:1 [4] | Excipient reactions with API (racemic isometheptene mucate), Mixture 1:1 [3] | Compound | further results
– | – | Physical interaction (complex) | – | OC[C@@H](O)[C@@H](O)[C@H](O)[C@H](O)CO [Mannitol SD200] | Excipient reactions with API (racemic isometheptene mucate), Mixture 1:1 ([3]; listed as mannitol SD200): Physical interaction was observed; Excipient reactions with (R)-isometheptene mucate, Mixture 1:1 ([4]; listed as mannitol SD200): Physical interaction was observed
– | – | – | Physical interaction (complex) | OC[C@@H](O)[C@@H](O)[C@H](O)[C@H](O)CO [Mannitol] | Excipient reactions with API (racemic isometheptene mucate), Mixture 1:1 ([3]; listed as mannitol): Physical interaction was observed
– | – | – | YES | CCCCCCCCCCCCCCCCCC(=O)O [Stearic acid] | Excipient reactions with API (racemic isometheptene mucate), Mixture 1:1 ([3]; listed as stearic acid): physical interaction was observed
